Data on three substances can be found in patent US12371459B2, “Antimicrobial peptide derived from Pseudin-2 peptide and uses thereof” (INDUSTRY-ACADEMIC COOPERATION FOUNDATION, CHOSUN UNIVERSITY, priority 2019, dated 2025).

The test system of data set [1] is erythrocytes of a mouse (Balb/c). In words: Erythrocyte hemolytic activity. Conditions: 1 hour at 37° C. The method, then: To compare the cytotoxicity among the peptides that are produced by the method of Example 1, erythrocyte hemolytic activity of the synthesized peptide was measured.
After that, the amount of hemoglobin contained in a supernatant collected by centrifuge at 1,000×g was determined by measuring the absorbance at a wavelength of 414 nm. As a control to be used as a reference for cell disruption level, the supernatant collected by a treatment with 1% Triton X-100 (Sigma, USA) and a reaction for 1 hour at 37° C. was used to measure the absorbance. By setting the resulting absorbance value at 100% of the erythrocyte hemolytic activity, hemolysis of each peptide was calculated using the following equation 1. Erythrocyte disrupting ability (%)=(Absorbance A−Absorbance B)/(Absorbance C−Absorbance B)×100 Equation 1 (in the above equation, Absorbance A indicates the absorbance of a reaction solution treated with each peptide, in which the absorbance is measured at a wavelength of 414 nm; Absorbance B indicates the absorbance of a reaction solution treated with PBS, in which the absorbance is measured at a wavelength of 414 nm; and Absorbance C indicates the absorbance of a reaction solution treated with 1% Triton X-100, in which the absorbance is measured at a wavelength of 414 nm).

Data set [2] is described as follows: Cytotoxicity in normal cell line (MTT). Conditions: human, HaCaT keratinocyte cells. On the procedure:
To determine the cytotoxicity of the peptides produced by the method of Example 1 in normal cell line, cytotoxicity was measured by using human keratinocyte cell line (HaCaT cell line, Dr. N E. Fusenig, Heidelberg, Germany).
Specifically, HaCaT cells, which have been cultured in DMEM medium containing 10% FBS (fetal bovine serum), were aliquoted in a microtiter plate to have 2×10^5 cells per well. […] Twenty-four hours later, a reaction solution containing 0.5 mg/ml MTT (thiazolyl blue tetrazolium bromide) dissolved in phosphate buffered saline (PBS) was added in an amount of 100 μl to each well and the reaction was allowed to occur for 4 hours. After that, the supernatant was discarded, and, by dissolving MTT crystals that are formed by adding 200 μl DMSO (dimethyl sulfoxide), the absorbance at 560 nm was measured to determine the cell survival ability.

Ends that are not written are not given here.

Turning to “WLNALKKVFQGIHEAIKLINNHVQ-NH2 [Pse-Anal1]”, the Erythrocyte disrupting ability in data set [1] (peptide concentration 3.13 μM) is 50.9%. In data set [1] (peptide concentration 6.25 μM), the Erythrocyte disrupting ability was 58.6%. The Erythrocyte disrupting ability in data set [1] (peptide concentration 12.5 μM) is 68.9%. In data set [1] (peptide concentration 25 μM), the Erythrocyte disrupting ability is on record as 82.0%. Further, in data set [1] (peptide concentration 50 μM), the Erythrocyte disrupting ability is reported as 93.5%. For the same substance, the Erythrocyte disrupting ability in data set [1] (peptide concentration 100 μM) was 100%. Also, in data set [2], the viability at 24 h, 3.13 µM stood at 80.1%; the viability at 24 h, 6.25 µM is 35.2%; the viability at 24 h, 12.5 µM came out at 26.8%; the viability at 24 h, 25 µM was determined as 15.9%. Besides, in data set [2], the viability at 24 h, 50 µM was determined as 13.6% and the viability at 24 h, 100 µM amounted to 1.8%.
For the substance “GLNALKKVSQGIHEAIKLINNHVQ-NH2 [Pse-Anal5]”, the Erythrocyte disrupting ability in data set [1] (peptide concentration 3.13 μM) amounted to 0%; in data set [1] (peptide concentration 6.25 μM), 0.7%; in data set [1] (peptide concentration 12.5 μM), 2.3%; in data set [1] (peptide concentration 25 μM), 5.9%; in data set [1] (peptide concentration 50 μM) it was 11.7%; in data set [1] (peptide concentration 100 μM), 20.1%. The same substance registered a viability at 24 h, 3.13 µM in data set [2] of 100%. Also, the viability at 24 h, 6.25 µM in data set [2] stood at 100%. The substance further yielded a viability at 24 h, 12.5 µM in data set [2] of 100%. The same substance displayed a viability at 24 h, 25 µM in data set [2] of 100%. The viability at 24 h, 50 µM in data set [2] was determined as 96.3%. The viability at 24 h, 100 µM in data set [2] is 83.5%.
With “GLNALKKVFQGIHEAIKKINNHVQ-NH2 [Pse-18L-K]”, the Erythrocyte disrupting ability in data set [1] (peptide concentration 3.13 μM) turned out to be 2.4%. Besides, in data set [1] (peptide concentration 6.25 μM), the Erythrocyte disrupting ability amounted to 3.4%. The Erythrocyte disrupting ability in data set [1] (peptide concentration 12.5 μM) was 5.4%. The Erythrocyte disrupting ability in data set [1] (peptide concentration 25 μM) is 12.5%. In addition, the Erythrocyte disrupting ability in data set [1] (peptide concentration 50 μM) was 24.2%. Moreover, the Erythrocyte disrupting ability in data set [1] (peptide concentration 100 μM) turned out to be 36.7%. In addition, in data set [2], the viability at 24 h, 3.13 µM amounted to 100%; the viability at 24 h, 6.25 µM turned out to be 100%; the viability at 24 h, 12.5 µM stood at 100%; the viability at 24 h, 25 µM amounted to 100%. In data set [2], this substance yielded a viability at 24 h, 50 µM of 100% and a viability at 24 h, 100 µM of 81.5%.

Usually viability stands for a per cent measure of how many cells are alive, often set against a control. Higher therefore signals better survival.
